Source: patent US7202265B2, “Indolinone combinatorial libraries and related products and methods for the treatment of disease” (Sugen, Inc., priority 1997, dated 2007)
Read-outs that look alike come from different tables or passages of the source.

Tests used:
FLK-1 receptor = biological target: T1, FLK-1 receptor (Mus musculus, UniProt P35918); test: FLK-1 ELISA (catalytic activity of the FLK-1 receptor in FLK-1/NIH3T3 cells); format: cell-based; set-up: Flk Kinase % Inhibition: concentration or dose not given beside the values
T1 construct: expressed in transfected cells; host or cells: NIH3T3 C7#3 (FLK-1/NIH3T3)
T1 sequence (P35918 20-1345): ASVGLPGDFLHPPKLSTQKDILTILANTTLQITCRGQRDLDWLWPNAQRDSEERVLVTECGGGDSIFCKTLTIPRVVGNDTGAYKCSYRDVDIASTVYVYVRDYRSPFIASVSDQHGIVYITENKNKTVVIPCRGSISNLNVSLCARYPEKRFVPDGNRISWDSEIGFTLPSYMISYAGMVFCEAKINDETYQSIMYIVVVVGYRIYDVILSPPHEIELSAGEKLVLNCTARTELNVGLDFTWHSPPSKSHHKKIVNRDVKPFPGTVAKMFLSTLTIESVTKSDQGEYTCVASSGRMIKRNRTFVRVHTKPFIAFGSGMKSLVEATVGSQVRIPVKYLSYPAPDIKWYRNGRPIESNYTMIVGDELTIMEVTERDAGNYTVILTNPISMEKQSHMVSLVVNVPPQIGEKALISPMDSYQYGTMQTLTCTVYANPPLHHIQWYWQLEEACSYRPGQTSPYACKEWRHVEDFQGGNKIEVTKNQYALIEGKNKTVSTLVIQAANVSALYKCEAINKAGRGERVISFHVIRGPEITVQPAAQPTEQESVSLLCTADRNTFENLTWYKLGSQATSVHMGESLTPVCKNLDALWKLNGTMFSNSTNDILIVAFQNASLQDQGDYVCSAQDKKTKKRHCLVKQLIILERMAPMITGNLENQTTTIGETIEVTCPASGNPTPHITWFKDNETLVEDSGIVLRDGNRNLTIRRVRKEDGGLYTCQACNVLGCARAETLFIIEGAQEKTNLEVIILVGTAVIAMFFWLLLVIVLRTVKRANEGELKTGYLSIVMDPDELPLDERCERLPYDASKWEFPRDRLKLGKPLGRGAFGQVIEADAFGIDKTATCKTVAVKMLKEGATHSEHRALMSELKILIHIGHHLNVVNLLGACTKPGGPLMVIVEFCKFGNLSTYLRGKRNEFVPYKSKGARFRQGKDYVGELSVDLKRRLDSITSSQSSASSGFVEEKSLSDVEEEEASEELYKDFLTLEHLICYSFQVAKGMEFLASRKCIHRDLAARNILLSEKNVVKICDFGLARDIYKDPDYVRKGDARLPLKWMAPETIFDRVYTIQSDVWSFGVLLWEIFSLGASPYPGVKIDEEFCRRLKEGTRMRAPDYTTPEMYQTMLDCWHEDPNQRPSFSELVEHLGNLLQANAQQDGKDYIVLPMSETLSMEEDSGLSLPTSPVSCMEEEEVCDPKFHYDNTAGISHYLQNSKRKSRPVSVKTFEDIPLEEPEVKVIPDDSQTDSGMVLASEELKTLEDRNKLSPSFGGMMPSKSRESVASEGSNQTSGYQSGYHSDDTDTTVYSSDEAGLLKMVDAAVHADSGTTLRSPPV

human MET = test: MET biochemical kinase assay; set-up: concentration or dose not given beside the values
How it was run: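 MET captured from cell lysates onto plates coated with goat anti-rabbit Fc plus rabbit polyclonal anti-MET cytoplasmic-domain antibody; after washing, compounds added with kinase buffer containing ATP and divalent metal ions. Receptor tyrosine phosphorylation detected by HRP-conjugated anti-phosphotyrosine antibody, TMB colorimetric read-out.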

EGFR = biological target: T2, EGFR (Homo sapiens, UniProt P00533); test: EGFR ELISA assay (in vitro kinase activity, A431 cell lysate); format: biochemical; set-up: concentration or dose not given beside the values
T2 construct: Add 7 ug A431 cell lysate per well (EGFR source); endogenous in cells; host or cells: A431 cells (lysate)
T2 sequence (P00533 25-1210): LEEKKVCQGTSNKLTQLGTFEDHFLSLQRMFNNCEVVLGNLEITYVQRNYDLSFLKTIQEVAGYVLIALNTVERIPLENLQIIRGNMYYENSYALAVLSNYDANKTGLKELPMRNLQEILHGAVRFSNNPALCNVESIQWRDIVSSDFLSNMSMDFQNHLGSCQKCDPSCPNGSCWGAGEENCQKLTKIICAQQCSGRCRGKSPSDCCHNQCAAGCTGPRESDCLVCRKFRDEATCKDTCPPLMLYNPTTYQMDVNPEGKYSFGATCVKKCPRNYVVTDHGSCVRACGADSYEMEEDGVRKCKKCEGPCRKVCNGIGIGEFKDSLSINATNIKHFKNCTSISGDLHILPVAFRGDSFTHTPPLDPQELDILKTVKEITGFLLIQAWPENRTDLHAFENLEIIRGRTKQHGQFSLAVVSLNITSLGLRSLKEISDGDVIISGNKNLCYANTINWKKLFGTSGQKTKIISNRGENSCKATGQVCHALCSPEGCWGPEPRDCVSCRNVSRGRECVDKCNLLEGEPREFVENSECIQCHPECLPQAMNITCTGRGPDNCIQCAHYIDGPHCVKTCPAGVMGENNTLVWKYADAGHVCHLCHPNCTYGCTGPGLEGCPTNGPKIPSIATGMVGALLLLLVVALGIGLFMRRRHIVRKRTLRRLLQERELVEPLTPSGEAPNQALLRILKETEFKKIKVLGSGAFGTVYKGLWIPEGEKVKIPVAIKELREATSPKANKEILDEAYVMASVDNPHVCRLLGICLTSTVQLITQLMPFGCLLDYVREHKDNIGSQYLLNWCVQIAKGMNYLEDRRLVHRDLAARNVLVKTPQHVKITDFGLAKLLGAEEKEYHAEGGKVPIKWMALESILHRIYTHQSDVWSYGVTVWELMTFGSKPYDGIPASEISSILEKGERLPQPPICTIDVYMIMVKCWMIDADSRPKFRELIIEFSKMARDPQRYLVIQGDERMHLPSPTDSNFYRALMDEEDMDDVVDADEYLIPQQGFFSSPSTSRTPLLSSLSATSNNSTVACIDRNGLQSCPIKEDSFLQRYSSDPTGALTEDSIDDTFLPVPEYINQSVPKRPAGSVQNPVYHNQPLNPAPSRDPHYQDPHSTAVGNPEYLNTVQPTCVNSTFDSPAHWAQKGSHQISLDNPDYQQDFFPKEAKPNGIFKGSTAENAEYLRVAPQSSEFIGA
Procedure: To provide a consistent method for measuring the in vitro kinase activity of the EGFR in an Enzyme-linked immunosorbent assay (Elisa).
Scope. The following protocol describes the procedures used to analyze protein tyrosine kinase activity on the EGFR in an Elisa. The procedure also describes the protocol for the initial screening of drugs for inhibition or activation of protein tyrosine kinase activity.
1. Coat Corning 96-well elisa plates with 0.5 ug per well 05-101 antibody. • Bring final volume to 100 ul per well with PBS. • Coat plates overnight at […].
2. Remove unbound 05-101 from wells by inverting plate to remove liquid. • Wash 1× with distilled H2O by filling wells • Pat the plate on a paper towel to remove excess liquid.
3. Block plates with 5% milk in PBS. • 150 ul per well. • Incubate plate 30 minutes while shaking on a microtiter plate shaker.
4. Wash plate 3× with dionized water, then once with TBST
5. Add 7 ug A431 cell lysate per well (EGFR source). • Add PBS to final volume of 100 ul per well • Incubate 30 minutes while shaking.
6. Wash as described in step 4.
8. […] It is best to add the ATP/MnCl2 with an 12 channel pipettor 1 row at a time leaving 20 seconds between each row so that the reaction may be stopped with EDTA exactly 5 minutes later (this depends on the number of plates being phosphorylated in one batch). Shake between each addition.
9. After 5 minutes, to stop reaction, add 16.5 ul of 200 mM EDTA pH 8.0 for 20 mM final in well, shaking continuously between each addition. This is done using the same timing method as above. After last row has received EDTA, shake plate an additional minute.
10. Wash 4× with deionized water, twice with TBST.
11. Add rabbit polyclonal anti-phosphotyrosine serum. • Dilute 1:3000 in TBST. • Add 100 ul per well. • Incubate 30–45 minutes while shaking.
12. Wash as described above in step 4.
13. Add BioSource anti-rabbit peroxidase conjugate antibody. • Dilute 1:2000 in TBST. • Add 100 ul per well. • Incubate 30 minutes while shaking.
14. Wash as described in step 4.
15. Add 100 ul of ABTS/H2O2 solution to well. • Incubate 5 to 10 minutes while shaking. • Remove bubbles
16. If necessary stop reaction with the addition of 100 ul of 0.2M HCl per well
17. Read assay on Dynatech MR7000 elisa reader. • Test Filter: 410 nM • Reference Filter: 630 nM

[1] = biological target: platelet derived growth factor protein kinase (PDGFR) (Homo sapiens, UniProt P09619); test: PDGF-R ELISA; format: cell-based; set-up: concentration or dose not given beside the values
Sequence of platelet derived growth factor protein kinase (PDGFR) (P09619 33-1106): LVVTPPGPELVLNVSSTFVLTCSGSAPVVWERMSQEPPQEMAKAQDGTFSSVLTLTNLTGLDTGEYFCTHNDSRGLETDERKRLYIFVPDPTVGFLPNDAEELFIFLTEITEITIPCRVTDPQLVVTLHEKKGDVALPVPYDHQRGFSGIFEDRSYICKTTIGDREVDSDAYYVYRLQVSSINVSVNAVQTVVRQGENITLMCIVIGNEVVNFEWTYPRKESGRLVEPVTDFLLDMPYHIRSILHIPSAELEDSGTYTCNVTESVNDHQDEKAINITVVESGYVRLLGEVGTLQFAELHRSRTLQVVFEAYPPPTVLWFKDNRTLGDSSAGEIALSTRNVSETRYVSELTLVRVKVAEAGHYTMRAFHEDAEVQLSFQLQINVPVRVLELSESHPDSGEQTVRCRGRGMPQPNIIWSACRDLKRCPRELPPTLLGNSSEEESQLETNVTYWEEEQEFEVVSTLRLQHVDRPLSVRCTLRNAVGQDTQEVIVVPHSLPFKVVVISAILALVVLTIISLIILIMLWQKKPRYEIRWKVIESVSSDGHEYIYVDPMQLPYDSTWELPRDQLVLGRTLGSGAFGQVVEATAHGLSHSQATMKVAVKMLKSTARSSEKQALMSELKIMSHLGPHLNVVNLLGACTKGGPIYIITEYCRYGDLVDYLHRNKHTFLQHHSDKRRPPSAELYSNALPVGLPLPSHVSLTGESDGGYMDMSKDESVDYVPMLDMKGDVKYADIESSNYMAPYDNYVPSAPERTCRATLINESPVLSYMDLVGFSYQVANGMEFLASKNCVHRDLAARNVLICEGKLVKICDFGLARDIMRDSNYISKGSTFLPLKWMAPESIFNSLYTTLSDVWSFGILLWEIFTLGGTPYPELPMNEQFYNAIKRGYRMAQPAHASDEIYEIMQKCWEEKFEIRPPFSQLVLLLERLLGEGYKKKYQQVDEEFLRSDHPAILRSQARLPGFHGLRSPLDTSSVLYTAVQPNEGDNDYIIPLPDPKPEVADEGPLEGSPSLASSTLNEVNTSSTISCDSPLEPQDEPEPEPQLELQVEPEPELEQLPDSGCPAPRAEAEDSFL
From the text: A PDGF-R ELISA is described in International Patent Publication No. WO 96/40116, published Dec. 19, 1996 by Tang et al.

[2] = Table 10, read-out: FLK Kinase IC50
[3] = Table 7, read-out: Activity 1C50 FLK Kinase

SMILES | IC50 (FLK-1 receptor; [2]) | Flk Kinase % Inhibition (FLK-1 receptor) | Met Kinase % Inhibition (human MET) | Biochem EGFR % Inhibition (EGFR) | PDGF Kinase % Inhibition [1] | IC50 (FLK-1 receptor; [3])
O=C1Nc2ccc(Cl)cc2/C1=C/c1ccc[nH]1 | 1.6 µM |  |  |  |  | 
Cc1[nH]c(/C=C2\C(=O)Nc3ccc(N)cc32)c(Br)c1Br | 1.9 µM |  |  |  |  | 
Cc1cccc2c1/C(=C/c1cc(C(C)C)c(OCc3ccccc3)c(C(C)C)c1)C(=O)N2 | 19.9 µM |  |  |  |  | 
CC(C)(C)c1ccc(/C=C2\C(=O)Nc3ccccc32)cc1 | 9.7 µM |  |  |  |  | 
CCc1ccc(/C=C2\C(=O)Nc3ccccc32)cc1 | 20.3 µM |  |  |  |  | 
Cc1cc(C)c2c(c1)NC(=O)/C2=C\c1c[nH]cn1 | 4.6 µM |  |  |  |  | 
O=C1Nc2ccc(Cl)cc2/C1=C/c1c[nH]cn1 | 5.6 µM |  |  |  |  | 
O=C1Nc2ccccc2/C1=C/c1ccc(N2CCCC2)cc1 | 9.9 µM |  |  |  |  | 
O=C1Nc2ccc(Cl)cc2/C1=C/c1ccc(N2CCCC2)cc1 | 12.3 µM |  |  |  |  | 
Nc1ccc2c(c1)/C(=C/c1ccc(N3CCCC3)cc1)C(=O)N2 | 18.4 µM |  |  |  |  | 
O=CN1CCN(c2ccc(/C=C3\C(=O)Nc4ccc(Cl)cc43)cc2)CC1 | 5.8 µM |  |  |  |  | 
O=CN1CCN(c2ccc(/C=C3\C(=O)Nc4ccccc43)cc2)CC1 | 6.2 µM |  |  |  |  | 
COc1cc2c(cc1OC)/C(=C/c1coc3ccc(C(C)C)cc3c1=O)C(=O)N2 | 17.1 µM |  |  |  |  | 
COc1cccc(O)c1C=C1C(=O)Nc2ccc(S(=O)(=O)N3CCOCC3)cc21 [10717/F10] |  | −4.4% |  |  |  | 
CCOC(=O)CCc1c(C(=O)OCC)[nH]c(C=C2C(=O)Nc3ccc(I)cc32)c1CC(=O)OCC [10718/B05] |  | 11.5% | 76.0% | 56.3% |  | 
CNS(=O)(=O)c1ccc2c(c1)C(=Cc1ccc(F)cc1C(F)(F)F)C(=O)N2 [10719/D11] |  | −8.7% | 12.8% | −11.1% |  | 
Cn1c(C=C2C(=O)Nc3ccc(I)cc32)nc2ccccc21 [10721/B02] |  | 19.5% | 82.6% | 58.6% |  | 
Cn1cc(Cl)c(C=C2C(=O)Nc3ccc(I)cc32)n1 [10721/B03] |  | 19.9% | 70.8% | 38.9% |  | 

SMILES | IC50 (FLK-1 receptor; [2]) | Flk Kinase % Inhibition (FLK-1 receptor) | Met Kinase % Inhibition (human MET) | Biochem EGFR % Inhibition (EGFR) | PDGF Kinase % Inhibition [1] | IC50 (FLK-1 receptor; [3])
Cc1cc(C=C2C(=O)Nc3ccc(I)cc32)sc1C [10721/B04] |  | 13.8% | 93.1% | 79.3% |  | 
O=C1Nc2ccc(I)cc2C1=Cc1cc([N+](=O)[O-])cc(CCl)c1O [10721/B06] |  | 3.4% | 92.4% | 71.5% |  | 
O=C1Nc2ccc(I)cc2C1=Cc1ccc(Cl)s1 [10721/B07] |  | 11.2% | 47.1% | 47.6% |  | 
Cc1cc(C=C2C(=O)Nc3ccc(I)cc32)cc(C)c1O [10722/B07] |  | 6.6% | 48.2% | 6.2% | 20.9% | 
O=C1Nc2ccc(I)cc2C1=Cc1csc([N+](=O)[O-])c1 [10722/B09] |  | 8.7% | 59.7% | 7.8% | 14.6% | 
O=C1Nc2ccc(CCCl)cc2C1=Cc1cccc(Br)c1 [10723/G10] |  | 3.5% |  |  |  | 
CN(C)c1ccc(C=C2C(=O)Nc3ccc(I)cc32)c2ccccc12 [10724/B02] |  | −6.2% | 48.8% | 34.9% | −21.5% | 
O=C1Nc2ccc(I)cc2C1=Cc1ccc([N+](=O)[O-])c(O)c1 [10724/B04] |  | −20.5% | 81.2% | 50.2% | 42.5% | 
O=C1Nc2ccc(I)cc2C1=Cc1cc2c3c(c1O)CCCN3CCC2 [10724/B05] |  | −2.2% | 45.6% | 21.2% | 12.6% | 
Cc1ccc(C=C2C(=O)Nc3c(Br)cc(Br)cc32)o1 [10725/A04] |  | −8.6% | 55.3% | 26.2% | −3.2% | 
Cc1ccc(C=C2C(=O)Nc3ccc(I)cc32)o1 [10725/B04] |  | 1.1% | 90.4% | 76.9% | 9.3% | 
CNS(=O)(=O)c1ccc2c(c1)C(=Cc1cccc(C#N)c1)C(=O)N2 [10727/D08] |  |  | 8.5% |  | 5.0% | 
O=C1Nc2ccc(I)cc2C1=Cc1ccc2c(c1)Cc1ccccc1-2 [10728/B06] |  | 4.7% | 56.0% | 38.1% | 7.6% | 
CNS(=O)(=O)c1ccc2c(c1)C(=Cc1c(OC)ccc3ccccc13)C(=O)N2 [10729/D02] |  |  |  | 5.7% |  | 
COc1c(I)cc(C=C2C(=O)Nc3ccc(S(=O)(=O)N4CCOCC4)cc32)cc1C(C)(C)C [10732/F11] |  | 14.1% | 65.1% |  |  | 
O=C1Nc2ccccc2/C1=C\c1cc2c([nH]1)CCCC2 [compound 0128] |  |  |  |  |  | 1.7 µM
O=C1Nc2ccc(Br)cc2/C1=C\c1cc2c([nH]1)CCCC2 [compound 0129] |  |  |  |  |  | 19.6 µM
